Measured values reported in patent US8173606B2, “Sulfated oligosaccharide derivatives” (Progen Pharmaceuticals Limited, priority 2004, dated 2012).

What was measured:
[1] = Pharmacokinetic studies of 35S-labelled compounds after iv administration; settings: rat; for AUC0-12 h / C0 / Cl* (apparent) / Vd* (apparent) / t1/2* (apparent): in vivo, iv, 2.5 mg/kg; for k* (apparent): iv bolus 2.5 mg/kg
Description: The polyol precursors for PG500, 501, 503, 504, 506 and PI-88 (2 mg of each) were desiccated under vacuum over P2O5 for 3 days. Into each vial was syringed 50 μL of a stock solution of 1.77 mg (2.0 mCi) of ^35SO3.pyridine complex and 2 mg SO3.Me3N in 300 μL of anhydrous DMF (Aldrich, redried over freshly ignited 3 A molecular sieves). A further 600 μL of anhydrous DMF was added to the SO3 vial and was distributed to each sample vial. The samples were heated to 60° for 66 hr. SO3.Me3N (14 mg in 300 μL anhydrous DMF) was added to each vessel and the resulting solutions were heated to 60° overnight. The vials were cooled to room temperature and stored at −80° C. awaiting purification.
Each sample was quenched by addition of Na2CO3 (sat. aqu. adjusted to pH 8-9), evaporated to dryness and subjected to SEC (Biogel P2, 2.6×90 cm, flow rate 30 mL/hr, 5 min/fraction). Fractions containing desired material were detected using a G-M counter and DMB test followed by CE.
Male Sprague Dawley rats (250-350 g) were used. The animals were allowed free access to food and water before and during the experiments, during which they were maintained unrestrained in metabolism cages. Rats were anaesthetized with isoflurane (Forthane®). A catheter was inserted in the external jugular vein via an incision in the neck, and was passed under the skin to a second incision in the skin of the back (midline vicinity of the scapulae). This was then exteriorized with the protection of a light metal spring. The incision was closed and the spring fixed to the skin with Michel sutures so that the rats had full range of movement. The animals were carefully monitored during recovery (1-4 h).
All doses were administered as a bolus intravenous injection of 2.5 mg/kg in a dose volume of 2 mL/kg. The total amount of radioactivity administered to each rat was 0.5-10 μCi. The dose level used in this study is 10-fold lower than the no-effect dose previously established for acute toxicity of PI-88. Blood samples (˜250 μL) were collected predose and at 5, 15, 30, 45 min, and 1, 1.5, 2, 4, 8, 12, 24, 36 and 48 h after dosing. The blood samples were immediately centrifuged and the plasma collected. At completion of the experiments, the animals were killed by a lethal overdose of IV pentobarbitone anaesthetic (Nembutal®). Urine was collected from each animal at intervals of 0-12 h, 12-24 h and 24-48 h after dosing. Cage washings (˜15 mL of deionised water) were also collected. At the end of the experiment, bladder contents were aspirated from each animal and added to the 24-48 h voidings. Feces were collected over the same time intervals as the urine.
Aliquots of plasma (100 μL), urine and cage washings (500 μL) were transferred directly to 6 mL polypropylene scintillation vials for determination of radioactivity. Feces collected during each time period (from one animal dosed with each compound) were weighed and homogenised in 4 volumes of deionised water using a mechanical homogeniser. Approximately 1 g (accurately weighed) of this slurry was transferred to a 20 mL glass scintillation vial, 2 mL of tissue solubiliser added and the vials capped and incubated at 60° C. for at least 24 h. Radioactivity was measured following mixing of samples with Packard Ultima Gold liquid scintillation counting cocktail (2.0 mL for plasma and dose, 5.0 mL for urine and cage washings, 10 mL for feces). Counting was conducted on a Packard Tr-Carb liquid scintillation counter. Any result less than three times the background was considered less than the lower limit of quantitation not used in calculations. Plasma, urine and cage washings were counted in triplicate within 5 days of collection and were not corrected for radiochemical decay. Feces were processed as a batch at the completion of the study and the counts from these samples were corrected for radiochemical decay.

[2] = tested on: herpes simplex virus (HSV-1) KOS321 strain; assay: Antiviral assay, HSV-1 cell-to-cell spread (plaque area); format: cell-based; settings: African green monkey kidney cells; compound in overlay medium after infection, 3 days
Description: In panel A, the results are expressed as a percentage of the number of viral plaque forming units (PFU) formed in cells infected with the compound-treated virions relative to mock-treated controls. In panel B, the results are expressed as a percentage of the average area of 20 viral plaques formed in the continuous presence of compound relative to mock-treated control cells. Monolayer cultures of African green monkey kidney cells[35] and herpes simplex virus (HSV-1) KOS321 strain[36] were used throughout. The antiviral assays on the compounds were performed as described by Nyberg et al.[13] Briefly, the effects of the compounds on the infection of cells by exogenously added virus were tested by mixing serial fivefold dilutions of compound (at 0.032-20 μM) with approximately 200 plaque forming units of the virus. Following incubation of the virus and compound for 10 min at room temperature, the mixture was added to the cells and left on the cell monolayer for 2 h at 37° C. Subsequently, the inoculum was aspirated and replaced with an overlay medium of 1% methylcellulose solution in Eagle's minimum essential medium (EMEM). The viral plaques that developed after incubation of cells for 3 days at 37° C. were stained with 1% crystal violet solution and counted. The effects of the compounds on cell-to-cell spread of HSV-1 were tested by adding serial fivefold dilutions of compound (at 0.032-20 μM) in the serum-free overlay medium to cells after their infection with HSV-1. After incubation of the compound with the cells for 3 days at 37° C., the images of 20 plaques were captured and subjected to area determination using IM500 software (Leica).

Benzyl Glycoside Polysulfate [PG500]
AUC0-12 h [1]: 12.6 ± 1.2 μg-eq/h · mL | C0 [1]: 20.5 ± 1.3 μg-eq/mL | Cl* (apparent) [1]: 3.32 ± 0.22 mL/min/kg | Vd* (apparent) [1]: 38.4 ± 3.8 mL | t1/2* (apparent) [1]: 49.8 ± 1.2 min | k* (apparent) [1]: 0.836 ± 0.024 h⁻¹ | IC50 [2]: 1 µM

Octyl Glycoside Polysulfate [PG501]
AUC0-12 h [1]: 29.7 ± 3.4 μg-eq/h · mL | C0 [1]: 35.6 ± 3.1 μg-eq/mL | Cl* (apparent) [1]: 1.39 ± 0.152 mL/min/kg | Vd* (apparent) [1]: 22.9 ± 2.2 mL | t1/2* (apparent) [1]: 66 ± 5.4 min | k* (apparent) [1]: 0.633 ± 0.053 h⁻¹ | IC50 [2]: 0.4 µM
